For assay [1], the target named is human GABAA receptors composed of the α4β3δ subunits (Homo sapiens (Human), UniProt O14764+P28472+P48169). Briefly: α4β3δ SyncroPatch automated patch clamp assay. Format: cell-based. As to conditions: for EC50: HEK cells, potentiation of submaximal GABA current, clamped at −120 mV. As to the method: (§1) The SyncroPatch 384PE (Nanion, Germany) automated patch clamp platform was used to obtain recordings from human embryonic kidney cells stably expressing human GABAA receptors composed of the α1β2γ2 and α4β3δ subunits. Cells were bathed in an extracellular solution containing: 140 mM NaCl, 4 mM KCl, 2 mM CaCl2), 1 mM MgCl2, 10 mM HEPES, 5 mM glucose and 0.1% DMSO. Solution was maintained at pH 7.4 with NaOH and 300 mOsm/L. Chips with multi-hole (4×) medium resistance (2-3M) are used for the recombinant cell line experiments. Once harvested, cells are stored in extracellular solution set to 10° C. in the cell hotel with a minimum shaking speed of 200 rpm before addition to the chip at the beginning of each experiment. Whole cell patch clamp recordings were made using an intracellular solution containing: 90 mM KCl, 50 mM KF, 1.5 mM MgCl2, 11.1 mM EGTA and 10 mM HEPES, 2 mM NaATP, maintained at pH 7.2 with KOH. Currents are leak corrected (using P/2 leak correction protocol) and sampled at 5 kHz. Cells were clamped at −120 mV. After establishing a stable baseline, a submaximal concentration of GABA (3-5 μM for cells expressing α1β2γ2 and 10 μM for cells expressing […]) was applied at a rate of 10 μl/second, immediately followed by application of GABA+compound (10 μl/second) at a single concentration of compound per cell. Compounds were tested at six concentrations (0.029, 0.12, 0.47, 1.88, 7.5, and 30 μM) in n=8-12 cells per concentration. Compound effect was determined by dividing peak current amplitude after GABA+compound by peak current amplitude after GABA alone. EC50 and Emax values were determined from average values for each concentration.
human GABAA receptors composed of the α4β3δ subunits, sequence (P48169 36-554 limits assumed): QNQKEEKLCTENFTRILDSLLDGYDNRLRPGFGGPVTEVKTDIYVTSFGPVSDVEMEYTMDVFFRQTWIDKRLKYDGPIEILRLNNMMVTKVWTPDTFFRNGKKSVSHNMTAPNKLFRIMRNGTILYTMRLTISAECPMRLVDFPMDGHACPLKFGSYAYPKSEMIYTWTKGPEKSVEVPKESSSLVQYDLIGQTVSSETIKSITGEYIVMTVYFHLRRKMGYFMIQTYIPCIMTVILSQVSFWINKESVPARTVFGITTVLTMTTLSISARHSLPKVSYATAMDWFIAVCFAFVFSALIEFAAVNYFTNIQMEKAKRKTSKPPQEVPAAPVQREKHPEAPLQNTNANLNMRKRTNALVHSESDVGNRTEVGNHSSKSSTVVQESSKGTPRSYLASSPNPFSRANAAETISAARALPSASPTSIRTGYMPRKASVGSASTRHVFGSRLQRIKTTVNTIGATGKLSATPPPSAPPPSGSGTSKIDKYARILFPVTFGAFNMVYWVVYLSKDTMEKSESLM
human GABAA receptors composed of the α4β3δ subunits, sequence (P28472 26-473 limits assumed): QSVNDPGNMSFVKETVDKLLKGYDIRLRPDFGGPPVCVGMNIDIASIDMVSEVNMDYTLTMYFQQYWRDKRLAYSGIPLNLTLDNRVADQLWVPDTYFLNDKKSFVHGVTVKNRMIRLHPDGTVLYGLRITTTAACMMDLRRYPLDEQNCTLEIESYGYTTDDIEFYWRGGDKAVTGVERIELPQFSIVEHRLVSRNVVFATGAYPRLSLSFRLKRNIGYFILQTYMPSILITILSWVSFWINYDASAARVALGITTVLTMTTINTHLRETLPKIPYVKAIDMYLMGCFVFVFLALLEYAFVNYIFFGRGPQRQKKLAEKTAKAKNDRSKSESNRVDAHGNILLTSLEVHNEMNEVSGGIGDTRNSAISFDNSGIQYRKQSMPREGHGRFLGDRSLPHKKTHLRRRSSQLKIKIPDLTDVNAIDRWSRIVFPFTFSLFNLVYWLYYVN
human GABAA receptors composed of the α4β3δ subunits, sequence (O14764 17-452 limits assumed): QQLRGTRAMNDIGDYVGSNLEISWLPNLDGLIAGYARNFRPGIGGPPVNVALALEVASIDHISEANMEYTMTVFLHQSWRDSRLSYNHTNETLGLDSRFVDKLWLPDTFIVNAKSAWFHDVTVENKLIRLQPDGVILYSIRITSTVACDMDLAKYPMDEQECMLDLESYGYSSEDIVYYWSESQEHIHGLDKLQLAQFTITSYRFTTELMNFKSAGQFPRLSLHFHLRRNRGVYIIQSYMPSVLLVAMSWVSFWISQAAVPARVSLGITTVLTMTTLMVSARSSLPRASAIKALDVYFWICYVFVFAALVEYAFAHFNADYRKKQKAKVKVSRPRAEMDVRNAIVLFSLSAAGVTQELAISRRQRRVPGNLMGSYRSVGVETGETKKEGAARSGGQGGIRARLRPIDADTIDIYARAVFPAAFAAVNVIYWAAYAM
Background: In patch-clamp work, channel activity is measured electrically.

Assay [2] concerns the target [35S]-TBPS binding, rat brain cortical membranes. Put plainly: Steroid inhibition of [35S]-TBPS binding. The following applies: 3 nM [35S]-TBPS, in the presence of 5 mM GABA. The essentials:
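In the presence of […], compounds (DMSO 0.5% final) competed with 3 nM [35S]-TBPS for Sprague-Dawley rat cortical membranes, pH 7.4 phosphate buffer, 90 min, room temperature. Filtration and scintillation counting; specific binding defined by […]; IC50 and maximal inhibition fitted per experiment, averaged as mean ± SEM.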

In assay [3] the target is human GABAA receptors composed of the α1β2γ2 subunits (Homo sapiens (Human), UniProt P14867+P18507+P47870). Briefly: α1β2γ2 SyncroPatch automated patch clamp assay. Format: cell-based. The following applies: for EC50: HEK cells, potentiation of submaximal GABA current, clamped at −120 mV. As to the method:
as §1

The mark [4] stands for this setting: peak current after GABA+compound divided by peak current after GABA alone.

human GABAA receptors composed of the α1β2γ2 subunits, sequence (P14867 28-456 limits assumed): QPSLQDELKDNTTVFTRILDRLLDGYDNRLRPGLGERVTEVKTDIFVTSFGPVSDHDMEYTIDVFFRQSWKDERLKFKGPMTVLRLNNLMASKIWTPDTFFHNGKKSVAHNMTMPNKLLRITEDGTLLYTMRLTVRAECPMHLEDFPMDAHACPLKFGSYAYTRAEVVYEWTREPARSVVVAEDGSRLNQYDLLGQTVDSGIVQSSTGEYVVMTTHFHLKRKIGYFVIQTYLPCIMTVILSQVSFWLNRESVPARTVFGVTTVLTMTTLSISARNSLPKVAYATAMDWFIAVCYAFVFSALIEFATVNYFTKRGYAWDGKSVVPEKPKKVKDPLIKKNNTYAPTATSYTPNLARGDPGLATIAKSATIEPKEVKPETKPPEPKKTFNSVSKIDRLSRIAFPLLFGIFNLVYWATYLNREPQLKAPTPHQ
human GABAA receptors composed of the α1β2γ2 subunits, sequence (P47870 25-512 limits assumed): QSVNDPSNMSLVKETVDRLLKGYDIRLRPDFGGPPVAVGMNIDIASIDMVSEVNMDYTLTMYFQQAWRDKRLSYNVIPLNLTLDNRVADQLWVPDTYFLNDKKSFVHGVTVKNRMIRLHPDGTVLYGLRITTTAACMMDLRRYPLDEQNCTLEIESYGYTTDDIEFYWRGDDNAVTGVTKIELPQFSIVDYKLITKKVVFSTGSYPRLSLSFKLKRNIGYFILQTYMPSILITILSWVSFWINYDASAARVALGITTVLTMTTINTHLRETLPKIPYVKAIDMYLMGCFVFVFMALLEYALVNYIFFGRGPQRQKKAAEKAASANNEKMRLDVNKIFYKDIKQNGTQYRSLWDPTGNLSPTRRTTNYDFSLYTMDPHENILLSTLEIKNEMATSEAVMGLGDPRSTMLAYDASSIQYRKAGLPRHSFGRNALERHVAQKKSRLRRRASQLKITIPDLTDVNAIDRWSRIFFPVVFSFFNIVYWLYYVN
human GABAA receptors composed of the α1β2γ2 subunits, sequence (P18507 40-475 limits assumed): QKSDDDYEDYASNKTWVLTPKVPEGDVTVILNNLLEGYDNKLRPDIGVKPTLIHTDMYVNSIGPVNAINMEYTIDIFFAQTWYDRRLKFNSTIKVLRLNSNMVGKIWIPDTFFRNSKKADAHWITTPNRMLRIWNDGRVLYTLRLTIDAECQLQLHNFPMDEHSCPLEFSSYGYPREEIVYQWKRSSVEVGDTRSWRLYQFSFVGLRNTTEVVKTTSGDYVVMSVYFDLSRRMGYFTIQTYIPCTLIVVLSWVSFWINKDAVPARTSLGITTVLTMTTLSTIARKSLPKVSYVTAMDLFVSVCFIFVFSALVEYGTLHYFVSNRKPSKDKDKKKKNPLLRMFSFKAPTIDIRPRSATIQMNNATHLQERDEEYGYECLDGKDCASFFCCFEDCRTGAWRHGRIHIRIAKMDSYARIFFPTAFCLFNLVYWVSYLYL

Take `CCC[C@@]1(O)CC[C@@]2(C)[C@H](CC[C@H]3[C@@H]4CC[C@H](C(C)Cn5cc(C#N)cn5)[C@@]4(C)CC(=O)[C@@H]32)C1` (stereo in doubt) [Example 339, 1-((S)-2-((3R,5R,8S,9S,10S,13S,14S,17R)-3-hydroxy-10,13-dimethyl-11-oxo-3-propylhexadecahydro-1H-cyclopenta[a]phenanthren-17-yl)propyl)-1H-pyrazole-4-carbonitrile]: the 50% effective concentration (EC50) in assay [1] is less than 200 nM; in assay [3], no less than 1000 nM. In addition, in assay [1] (setting [4]), the “α4β3δ EMAX” value is “C (C indicates an Emax response ≥45)”. Also, in assay [2], the IC50 was less than 100 nM. Further, the “α1β2γ2 EMAX” value in assay [3] (setting [4]) is recorded as “C (C indicates an Emax response ≥10)”.

Take `CCC[C@@]1(O)CC[C@H]2[C@H](CC[C@@H]3[C@@H]2CC[C@]2(C)[C@@H]([C@@H](C)Cn4nnc(C)n4)[C@@H](O)C[C@@H]32)C1` [Example 365, (3R,5R,8R,9R,10S,13S,14S,16S,17R)-13-methyl-17-((R)-1-(5-methyl-2H-tetrazol-2-yl)propan-2-yl)-3-propylhexadecahydro-1H-cyclopenta[a]phenanthrene-3,16-diol]: the EC50 was 200 to 1000 nM in assay [1] and no less than 1000 nM in assay [3].

In the case of `COC[C@@]1(O)CC[C@H]2[C@H](CC[C@@H]3[C@@H]2CC[C@]2(C)[C@@H]([C@@H](C)Cc4ccc(C(F)(F)F)nc4)CC[C@@H]32)C1` [Example 420], the concentration for a half-maximal effect (EC50) in assay [1] and in assay [3] was less than 200 nM each time.

With `Cc1cc(C#N)ccc1N[C@@H]([C@H]1CC[C@H]2[C@@H]3CC[C@@H]4C[C@](C)(O)CC[C@@H]4[C@H]3CC[C@]12C)C(F)(F)F` [Example 489, 3-methyl-4-(((S)-2,2,2-trifluoro-1-((3R,5R,8R,9R,10S,13S,14S,17S)-3-hydroxy-3,13-dimethylhexadecahydro-1H-cyclopenta[a]phenanthren-17-yl)ethyl)amino)benzonitrile], the IC50 in assay [2] was 1000 to 10000 nM.

With `Cc1cc(C#N)ccc1N[C@H]([C@H]1CC[C@H]2[C@@H]3CC[C@@H]4C[C@](C)(O)CC[C@@H]4[C@H]3CC[C@]12C)C(F)(F)F` [Example 490, 3-methyl-4-(((R)-2,2,2-trifluoro-1-((3R,5R,8R,9R,10S,13S,14S,17S)-3-hydroxy-3,13-dimethylhexadecahydro-1H-cyclopenta[a]phenanthren-17-yl)ethyl)amino)benzonitrile], the 50% inhibitory concentration (IC50) in assay [2] was in the range of 100 to 1000 nM.

As to `CC[C@@]1(O)CC[C@H]2[C@H](CC[C@@H]3[C@@H]2CC[C@]2(C)[C@@H]([C@@H](C)Nc4ccc(C#N)nc4)CC[C@@H]32)C1` [Example 491, 5-(((R)-1-((3R,5R,8R,9R,10S,13S,14S,17S)-3-ethyl-3-hydroxy-13-methylhexadecahydro-1H-cyclopenta[a]phenanthren-17-yl)ethyl)amino)picolinonitrile], the IC50 in assay [2] was in the range of 100 to 1000 nM.

In the case of `CCOC[C@@]1(O)CC[C@H]2[C@H](CC[C@@H]3[C@@H]2CC[C@]2(C)[C@@H]([C@@H](CC)Nc4cccc(C#N)c4)CC[C@@H]32)C1` [Example 492, 3-(((R)-1-((3R,5R,8R,9R,10S,13S,14S,17S)-3-(ethoxymethyl)-3-hydroxy-13-methylhexadecahydro-1H-cyclopenta[a]phenanthren-17-yl)propyl)amino)benzonitrile], the IC50 in assay [2] fell in the range of 1000 to 10000 nM.

Consider `CCOC[C@@]1(O)CC[C@H]2[C@H](CC[C@@H]3[C@@H]2CC[C@]2(C)[C@@H]([C@H](CC)Nc4ccc(C#N)nc4)CC[C@@H]32)C1` [Example 493, 5-(((S)-1-((3R,5R,8R,9R,10S,13S,14S,17S)-3-(ethoxymethyl)-3-hydroxy-13-methylhexadecahydro-1H-cyclopenta[a]phenanthren-17-yl)propyl)amino)picolinonitrile], for which the half-maximal inhibitory concentration (IC50) in assay [2] lay within 1000 to 10000 nM.

Take `CCOC[C@@]1(O)CC[C@@]2(C)[C@H](CC[C@@H]3[C@@H]2CC[C@]2(C)[C@@H]([C@H](CC)Nc4ccc(C#N)nc4)CC[C@@H]32)C1` [Example 494, 5-(((S)-1-((3R,5R,8R,9S,10S,13S,14S,17S)-3-(ethoxymethyl)-3-hydroxy-10,13-dimethylhexadecahydro-1H-cyclopenta[a]phenanthren-17-yl)propyl)amino)picolinonitrile]: the half-inhibitory concentration (IC50) in assay [2] lay in the range of 100 to 1000 nM.

Take `CCOC[C@@]1(O)CC[C@@]2(C)[C@H](CC[C@@H]3[C@@H]2CC[C@]2(C)[C@@H]([C@@H](CC)Nc4ccc(C#N)nc4)CC[C@@H]32)C1` [Example 495, 5-(((R)-1-((3R,5R,8R,9S,10S,13S,14S,17S)-3-(ethoxymethyl)-3-hydroxy-10,13-dimethylhexadecahydro-1H-cyclopenta[a]phenanthren-17-yl)propyl)amino)picolinonitrile]: the IC50 in assay [2] is 100 to 1000 nM.

Regarding `CC[C@H](Nc1cccc(C#N)c1)[C@H]1CC[C@H]2[C@@H]3CC[C@@H]4C[C@@](O)(COC)CC[C@@H]4[C@H]3CC[C@]12C` [Example 496, 3-(((S)-1-((3R,5R,8R,9R,10S,13S,14S,17S)-3-hydroxy-3-(methoxymethyl)-13-methylhexadecahydro-1H-cyclopenta[a]phenanthren-17-yl)propyl)amino)benzonitrile], the IC50 in assay [2] was 100 to 1000 nM.

Regarding `CC[C@@H](Nc1cccc(C#N)c1)[C@H]1CC[C@H]2[C@@H]3CC[C@@H]4C[C@@](O)(COC)CC[C@@H]4[C@H]3CC[C@]12C` [Example 497, 3-(((R)-1-((3R,5R,8R,9R,10S,13S,14S,17S)-3-hydroxy-3-(methoxymethyl)-13-methylhexadecahydro-1H-cyclopenta[a]phenanthren-17-yl)propyl)amino)benzonitrile], the 50% inhibitory concentration (IC50) in assay [2] was in the range of 100 to 1000 nM.

As to `CCOC[C@@]1(O)CC[C@H]2[C@H](CC[C@@H]3[C@@H]2CC[C@]2(C)[C@@H]([C@@H](CC)Cn4ccc(C#N)n4)CC[C@@H]32)C1` [Example 498, 1-((R)-2-((3R,5R,8R,9R,10S,13S,14S,17R)-3-(ethoxymethyl)-3-hydroxy-13-methylhexadecahydro-1H-cyclopenta[a]phenanthren-17-yl)butyl)-1H-pyrazole-3-carbonitrile], the concentration for half-maximal inhibition (IC50) in assay [2] was in the range of 100 to 1000 nM.

For the compound `CCOC[C@@]1(O)CC[C@H]2[C@H](CC[C@@H]3[C@@H]2CC[C@]2(C)[C@@H]([C@@H](CC)Cn4nccc4C#N)CC[C@@H]32)C1` [Example 500, 1-((R)-2-((3R,5R,8R,9R,10S,13S,14S,17R)-3-(ethoxymethyl)-3-hydroxy-13-methylhexadecahydro-1H-cyclopenta[a]phenanthren-17-yl)butyl)-1H-pyrazole-5-carbonitrile], in assay [2], the half-inhibitory concentration (IC50) fell in the range of 1000 to 10000 nM.

Take `CCOC[C@@]1(O)CC[C@H]2[C@H](CC[C@@H]3[C@@H]2CC[C@]2(C)[C@@H]([C@H](CC)Cn4nccc4C#N)CC[C@@H]32)C1` [Example 501, 1-((S)-2-((3R,5R,8R,9R,10S,13S,14S,17R)-3-(ethoxymethyl)-3-hydroxy-13-methylhexadecahydro-1H-cyclopenta[a]phenanthren-17-yl)butyl)-1H-pyrazole-5-carbonitrile]: in assay [2], the IC50 fell in the range of 100 to 1000 nM.

Turning to `CCOC[C@@]1(O)CC[C@@]2(C)[C@H](CC[C@H]3C4CC[C@H]([C@@H](C)Nc5ccc(-n6ccc(C#N)n6)cn5)[C@@]4(C)CC[C@@H]32)C1` (stereo partly shown) [Example 502], the IC50 in assay [2] fell in the range of 100 to 1000 nM.

Consider `CCOC[C@@]1(O)CC[C@H]2[C@H](CC[C@@H]3[C@@H]2CC[C@]2(C)[C@@H]([C@@H](CC)Nc4ccc(C#N)nc4)CC[C@@H]32)C1` [Example 503], for which the IC50 in assay [2] lay in the range of 100 to 1000 nM.

On to `CCOC[C@@]1(O)CC[C@@]2(C)[C@H](CC[C@H]3C4CC[C@H]([C@@H](C)Nc5ccc(-n6cc(C#N)cn6)cn5)[C@@]4(C)CC[C@@H]32)C1` (stereo partly shown) [Example 504], for which the concentration for half-maximal inhibition (IC50) in assay [2] lay in the range of 100 to 1000 nM.

As to `C[C@@]1(O)CC[C@H]2[C@H](CC[C@@H]3[C@@H]2CC[C@]2(C)[C@@H]([C@H](Nc4ccccc4)C(F)(F)F)CC[C@@H]32)C1` [Example 505], the half-inhibitory concentration (IC50) in assay [2] was in the range of 100 to 1000 nM.

As a reminder, the EC50 is the concentration giving half of the maximal effect. What is called IC50 is the concentration at which inhibition is half-maximal.

Source of the values: US20230322846A9, “NEUROACTIVE STEROIDS AND THEIR METHODS OF USE” (SAGE THERAPEUTICS, INC., priority 2018, published 2023).
